According to patent EP1408948B1, “THYROID THERAPEUTIC AGENT COMPRISING PARTIAL GLYCERIDES AND DEXTRINE” (BERLIN-CHEMIE Aktiengesellschaft, priority 2001, dated 2003):

Experiments:
[1] = oral, steady state after 6 weeks of medication, patients on long-term medication; cited from earlier work
[2] = In vitro release of Levothyroxin-Natrium from tablets, paddle apparatus; assay type: physicochemical; conditions: tablets of 50, 100, 150, 200 µg, 100 rpm, 500 ml phosphate buffer pH 7,4, data only in Fig. 1-4
Text: Die folgenden in vitro Untersuchungen der erfindungsgemäß hergestellten Tabletten belegen, dass der Wirkstoff Levothyroxin-Natrium aus den Tabletten der unterschiedlichen Dosierungen in gleicher Geschwindigkeit und […] Ausmaß freigesetzt und somit dem Körper zur Verfügung gestellt werden kann. Die Untersuchungen zur Freisetzung wurden mit den Tabletten gemäß den Beispielen 2 und 3 durchgeführt. In den Figuren 1 bis 4 ist die jeweilige Freisetzung dargestellt. An […] % angegeben, an […] Zeit aufgetragen. Die Balken geben den Vertrauensbereich des […] von Levothyroxin-Natrium aus Tabletten (50 μg), Tablettenmasse 52 mg, Paddle-Apparatur, 100 rpm, […]: 500 ml Phosphatpuffer pH 7,4; • Fig. 2: Freisetzung von Levothyroxin-Natrium aus Tabletten (100 μg), Tablettenmasse 104 mg, Paddle-Apparatur, 100 rpm, […]: 500 ml Phosphatpuffer pH 7, 4; • Fig. 3: Freisetzung von Levothyroxin-Natrium aus Tabletten (150 μg), Tablettenmasse 156 mg, Paddle-Apparatur, 100 rpm, […]: 500 ml Phosphatpuffer pH 7,4 und • Fig. 4: Freisetzung von Levothyroxin-Natrium aus Tabletten (200 μg), Tablettenmasse 208 mg, Paddle-Apparatur, 100 rpm, […]: 500 ml Phosphatpuffer pH 7,4.

[3] = Bioavailability studies of levothyroxine sodium tablets of different strengths (pharmacokinetic parameters, dose linearity); assay type: in vivo; conditions: tablets of 50, 100, 150 and 200 µg made from one base formulation, oral
Method: Die ermittelten pharmakokinetischen Parameter der in vivo geprüften 50, 100, 150 und 200 µg Levothyroxin-Natrium enthaltenden Tabletten sind in Tabelle 1 aufgeführt.

SMILES | Kinetik (L-Thyroxin-Serumkonzentration, AUC 0 x 24, Cmax, Ctrough) [1] | Freisetzung von Levothyroxin-Natrium aus Tabletten [2] | Dosislinearität [3]
N[C@@H](Cc1cc(I)c(Oc2cc(I)c(O)c(I)c2)c(I)c1)C(=O)O [L-Thyroxin] | nicht-linearen Kinetik |  | 
N[C@@H](Cc1cc(I)c(Oc2cc(I)c(O)c(I)c2)c(I)c1)C(=O)O [Levothyroxin-Natrium] |  | in gleicher Geschwindigkeit und gleichem Ausmaß freigesetzt | klare Dosislinearität
